Data on 5 compounds can be found in US20210382058A1, “PATIENT SELECTION FOR TREATMENT OF MYC POSITIVE CANCERS WITH INDENOISOQUINOLINES” (Purdue Research Foundation, priority 2020, published 2021).

In assay [1] the test system is calf thymus dsDNA. As to the kind of experiment: Competition fluorescence displacement, competitor dsDNA. The assay is classed as binding. To be noted: for binding selectivity for DNA G4s over dsDNA: competition fluorescence displacement, 1 and 5 equivalents; for Ki: competitor binding affinity, Ki refers to the base-pair concentration, 20 nM compound, 20° C., pH 7, 100 mM K+. The procedure:
(§1) Using a competition fluorescence displacement assay, the binding selectivity of five indenoisoquinolines for MycG4 was determined as compared to a parallel K-Ras promoter G4, a hybrid telomeric G4, and double-stranded (ds) DNA at 1 and 5 equivalents of each compound (FIGS. 7 and 16A-16C). The 3′-TAMRA labeled MycPu22 DNA was used as the fluorescence probe, whose fluorescence was quenched upon the binding of indenoisoquinolines. Upon addition of unlabeled, non-fluorescent competitors (e.g. other DNA G4s and dsDNA), the TAMRA-labeled MycPu22 DNA is displaced by the competitor DNA for indenoisoquinoline binding and the initial high TAMRA-fluorescence is restored. The competition fluorescence displacement assay allows for a straightforward assessment of selective binding towards MycG4 vs. the competitors, i.e. MycG4s (parallel), K-Ras G4 (parallel), telomeric G4 (hybrid), and dsDNA. One and five compound equivalents were used to assess the selectivity of the strongest binding site and other binding sites of each indenoisoquinoline. […] As shown in the modeling study, the substituents on the A- and D-rings of indenoisoquinolines likely contribute to binding MycG4 by more optimal stacking interactions with the external G-tetrads. On the other hand, the increased size of the indenoisoquinoline ring system may hinder intercalation in dsDNA due to possible steric collision with the DNA backbone. […] 6-Substituted indenoisoquinolines were previously reported to bind to the c-Kit promoter G4s which were also primarily parallel.^17
(§2) The competition fluorescence displacement experiments were performed on a Jasco FP-8300 Spectrofluorometer equipped with a temperature controller at 20° C. The stock solution containing 2 μM 3′-TAMRA-labelled MycPu22 oligonucleotide was diluted to 20 nM using 75 mM KCl, 25 mM phosphate buffer at pH 7.0. To check the binding selectivity of each compound to MycG4 DNA, 20 nM or 100 nM of the indenoisoquinoline was added to the DNA solution in a total volume of 1.6 mL in a quartz cell with a 10 mm path length. Subsequently, various unlabeled MycG4s (MycPu22 and MycPu28), K-Ras G4, telomeric G4 DNAs, or calf thymus dsDNA were gradually added to the complex solution. For each addition of the DNA, the sample was equilibrated at least 2 min. The fluorescence spectrum was recorded between 570 and 600 nm with an excitation wavelength of 555 nm, 10 nm bandwidths, 100 nm/min of scan speed, and 1 s of response time. The fluorescence intensities at the emission maximum (Δmax=580 nm) were plotted for figures. The competitor binding affinities (K, values) were calculated by
(§3) using data from 20 nM compound. The C50 value was the concentration of the unlabeled competing DNA that recovers the fluorescence of the labelled DNA by 50%. [L] represents the ligand concentration that is a constant value of 20 nM. Kd,app values were obtained by fluorescence-based binding assay.

For assay [2], the target named is K-RasG4 (parallel K-Ras promoter G4). The assay is described as follows: Competition fluorescence displacement, competitor K-Ras G4. The note with it: competitor binding affinity; 20 nM 3′-TAMRA MycPu22, 20 nM compound, 20° C., pH 7, 100 mM K+. The protocol: as §1, §2, §3
Assay [3] has as its target MycPu28. The assay is described as follows: Competition fluorescence displacement, competitor MycPu28. The arrangement: species or system human. To be noted: competitor binding affinity; 20 nM 3′-TAMRA MycPu22, 20 nM compound, 20° C., pH 7, 100 mM K+. The procedure:
as §1, §2, §3

In assay [4] the test system is MycG4 (MycPu22 DNA). As to the kind of experiment: 1H NMR titration of MycPu22 DNA. The assay is classed as binding, human. To be noted: 150 μM DNA, 25° C., pH 7, 100 mM K+. An excerpt:
The binding interactions of six selected indenoisoquinolines with MycG4 were examined using ^1H NMR titration experiments in K^+-containing solution. […] The binding appeared to be in the medium-to-fast exchange rate on the NMR time-scale, as shown by the broadening of DNA proton peaks at lower drug equivalence (0.5 and 1) and the sharpening at higher drug equivalence (2 and 3). […] The MycG4 complexes of the five MycG4-interactive indenoisoquinolines were monomeric in nature as shown by native EMSA gels (FIG. 13).
All NMR experiments were conducted using a Bruker AV-500 spectrometer equipped with a Prodigy cryoprobe at 25° C. Watergate water suppression technique was used to suppress water signals. Briefly, each DNA sample was prepared to a final concentration of […] in 75 mM KCl, 25 mM phosphate buffer at pH 7.0, and containing 90/10% H2O/D2O. DNA samples were heated to 95° C. for 5 min then cooled slowly to room temperature for G4 formation. ^1H-NMR titrations were performed by adding increasing amounts of the compound (0.5 to 4 equivalents) to the oligonucleotide solution.

Assay [5] concerns the target MycPu22. As to the kind of experiment: Competition fluorescence displacement, competitor MycPu22. The note with it: competitor binding affinity; 20 nM 3′-TAMRA MycPu22, 20 nM compound, 20° C., pH 7, 100 mM K+. The arrangement: species or system human. The procedure: as §1, §2, §3
Assay [6] has as its system Telomeric G4 (hybrid). The assay is described as follows: Competition fluorescence displacement, competitor telomeric G4. The assay is classed as binding. To be noted: for binding selectivity for parallel G4s over hybrid G4: competition fluorescence displacement, 1 and 5 equivalents; for Ki: competitor binding affinity, 20 nM 3′-TAMRA MycPu22, 20 nM compound, 20° C., pH 7, 100 mM K+. The protocol: as §1, §2, §3

The term Ki denotes a dissociation constant, usually derived from enzyme kinetics or from competition with a known ligand. Read a low Ki as higher affinity.

For the compound `COc1cnc2c(c1)C(=O)c1c-2n(CCCNC(C)C)c(=O)c2cc(F)ccc12` [Compound 5], the “binding selectivity for DNA G4s over dsDNA” value in assay [1] is reported as “remarkable selectivity”. Further, the Ki in assay [1] was ~11000 nM; in assay [2] it was 21 nM; in assay [3], 18 nM; in assay [5], 16 nM; in assay [6], 164 nM. Further, the “binding to MycG4 by 1H NMR titration” value in assay [4] is reported as “more specific binding to MycG4”. Also, the “binding selectivity for parallel G4s over hybrid G4” value in assay [6] is reported as “marked selectivity”.

`CNCCCn1c2c(c3ccc(F)cc3c1=O)C(=O)c1cc(OC)cnc1-2` [Compound 6]: the “binding selectivity for DNA G4s over dsDNA” value in assay [1] is reported as “remarkable selectivity”. In addition, the Ki was ~12000 nM in assay [1]; 32 nM in assay [2]; 33 nM in assay [3]; 40 nM in assay [5]; 286 nM in assay [6]. Further, the “binding to MycG4 by 1H NMR titration” value in assay [4] is “more specific binding to MycG4”. Moreover, the “binding selectivity for parallel G4s over hybrid G4” value in assay [6] was “marked selectivity”.

Turning to `COc1cnc2c(c1)C(=O)c1c-2n(CCCN2CCCC2)c(=O)c2cc([N+](=O)[O-])ccc12` [Compound 9], the “binding selectivity for DNA G4s over dsDNA” value in assay [1] was “remarkable selectivity”. Besides, the Ki in assay [1] was 5170 nM; in assay [2] it was 11 nM; in assay [3], 11 nM; in assay [5], 12 nM; in assay [6], 28 nM. For the same compound, the “binding to MycG4 by 1H NMR titration” value in assay [4] was “less well-defined MycG4 complexes”. In addition, the “binding selectivity for parallel G4s over hybrid G4” value in assay [6] was “much less selectivity”.

As to `COc1cnc2c(c1)C(=O)c1c-2n(CCCNC2=NCCS2)c(=O)c2cc([N+](=O)[O-])ccc12` [Compound 12], the “binding selectivity for DNA G4s over dsDNA” value in assay [1] was “remarkable selectivity”. Also, the Ki in assay [1] turned out to be 3620 nM; in assay [2], 7 nM; in assay [3], 7 nM; in assay [5], 7 nM; in assay [6], 14 nM. Further, in assay [4], the “binding to MycG4 by 1H NMR titration” value was “less well-defined MycG4 complexes”. The “binding selectivity for parallel G4s over hybrid G4” value in assay [6] was “much less selectivity”.

For `O=C1c2ccccc2-c2c1c1ccccc1c(=O)n2CCCNCCO` [Compound 13], the “binding selectivity for DNA G4s over dsDNA” value in assay [1] is given as “much less selectivity against dsDNA”. Further, the Ki in assay [1] is 2140 nM; in assay [2], 23 nM; in assay [3], 19 nM; in assay [5] it was 26 nM; in assay [6] it was 146 nM. The “binding to MycG4 by 1H NMR titration” value in assay [4] is on record as “more specific binding to MycG4”. The “binding selectivity for parallel G4s over hybrid G4” value in assay [6] was “selectivity for parallel G4s over hybrid G4”.
